US4902799A, “Bicyclic alkoxy- and alkylthio-substituted aminoalcohols” (Maggioni-Winthrop S.p.A., priority 1985, dated 1990)
Like-named read-outs stand apart in the source and are kept apart here. One block for each compound: values may come before it.

What was measured:
[1] = tested on: toxic adrenaline doses; assay: animal or person; format: in vivo, mouse (male mice CrI:CD 1(CR) BR); conditions: Mus musculus, po, 24 h, read-out: PD50 (50% protective dose)
[2] = tested on: platelet aggregation; assay: Collagen-induced platelet aggregation ex vivo; format: in vivo, rat; conditions: 0.15 mM/kg oral, blood 1 hr after treatment, collagen 2-4 mcg/ml
[3] = tested on: Normolipemic rats; assay: Hypolipemic activity in normolipemic rats; format: in vivo, rat (Sprague Dawley Nos male rats)
[4] = in vivo; conditions: mouse, po
[5] = tested on: male mice; assay: Anti-hypoxic activity (gasping time after decapitation); format: in vivo; conditions: Mus musculus, po, read-out: Gasping time, % diff. from control; for change in vivo at 100 mg/kg: 100 mg/kg/p.o.
[6] = biological target: T1, alpha2-adrenergic receptors (Rattus norvegicus, UniProt P22909); conditions: (a) Qian et al. 1983 for Tibalosine; (b) Van Zwieten et al. 1985 for Urapidil; cited from earlier work
T1 construct: from tissue; host or cells: rat brain membranes
T1 sequence (P22909 1-465): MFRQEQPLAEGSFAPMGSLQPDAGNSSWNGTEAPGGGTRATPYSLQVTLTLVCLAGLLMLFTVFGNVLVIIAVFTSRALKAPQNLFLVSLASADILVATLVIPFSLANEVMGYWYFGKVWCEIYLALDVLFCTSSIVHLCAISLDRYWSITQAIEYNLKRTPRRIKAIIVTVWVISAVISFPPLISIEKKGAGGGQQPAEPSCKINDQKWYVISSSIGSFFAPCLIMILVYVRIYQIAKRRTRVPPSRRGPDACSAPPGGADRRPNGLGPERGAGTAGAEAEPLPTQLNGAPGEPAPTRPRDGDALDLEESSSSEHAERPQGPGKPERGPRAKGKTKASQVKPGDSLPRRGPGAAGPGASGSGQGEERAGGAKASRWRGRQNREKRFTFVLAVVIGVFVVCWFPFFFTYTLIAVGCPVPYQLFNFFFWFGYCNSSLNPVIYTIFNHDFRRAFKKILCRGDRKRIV

[7] = biological target: alpha1-adrenergic receptors; conditions: (a) Qian et al. 1983 for Tibalosine; (b) Van Zwieten et al. 1985 for Urapidil; cited from earlier work
[8] = tested on: SH rats (spontaneously hypertensive rats); assay: Anti-hypertensive activity in spontaneously hypertensive rats, tail artery plethysmography; format: in vivo, rat; conditions: SHR
Description: The anti-hypertensive activity was tested on groups of 5 SH rats (spontaneously hypertensive rats) weighing 200±10 g, fasting for 18 hrs and treated orally with the invention compounds suspended in 2.5% gum arabic.
Changes in blood pressure (mm Hg) before (T=0) and after treatment (2, 4 and 6 hrs) were measured according to the method of tail artery plethysmography reported in "Spontaneously hypertensive rats (SHR): Guidlines for breeding, care and use", SHR Conference, 1976, page 11.
The arterial pressure before the treatment was 210±10 mmHg.

Structure (SMILES): COc1cc2nc(N3CCN(C(=O)c4ccco4)CC3)nc(N)c2cc1OC [Prazosin]
ED50 [1]: 0.7 mg/kg

Structure (SMILES): COc1ccc2cc(C(O)C(C)N3CCN(C(=O)C=Cc4cc(OC)c(OC)c(OC)c4)CC3)ccc2c1 (stereo not drawn) [MG 28472, 2-[4-(1-Oxo-3-(3,4,5-trimethoxyphenyl)-2-propenyl)-1-piperazinyl]-1-(6-methoxy-2-naphthyl)-propanol]
% Inhibition, Aggregation rate [2]: 65.3%
% Inhibition, Maximum aggregation [2]: 75.7%

Structure (SMILES): COc1ccc2cc(C(O)C(C)N3CCN(c4ccccc4)CC3)ccc2c1 (stereo not drawn) [MG 38068, 2-(4-Phenyl-1-piperazinyl)-1-(6-methoxy-2-naphthyl)-propanol]
CHOL, % different from control ([3]; 0.185 mM/kg/p.o. × 4 days): -3.7%
CHOL-HDL, % different from control ([3]; 0.185 mM/kg/p.o. × 4 days): +5.0%
Liver Weight, % different from control ([3]; 0.185 mM/kg/p.o. × 4 days): +2.6%
TG, % different from control ([3]; 0.185 mM/kg/p.o. × 4 days): -45.0%
CHOL, % different from control ([3]; 0.37 mM/kg/p.o. × 4 days): -21.8%
CHOL-HDL, % different from control ([3]; 0.37 mM/kg/p.o. × 4 days): +32.9%
Liver Weight, % different from control ([3]; 0.37 mM/kg/p.o. × 4 days): +0.3%
TG, % different from control ([3]; 0.37 mM/kg/p.o. × 4 days): -56.9%
CHOL-HDL (in words) ([3]; oral): increase of CHOL-HDL
serum TG (in words) ([3]; oral): significative decrease of serum TG
% Inhibition, Aggregation rate [2]: 54.4%
% Inhibition, Maximum aggregation [2]: 58.8%
LD50 [4]: > 1000 mg/kg

Liver Weight, % different from control ([3]; 0.023 mM/kg/p.o. × 4 days): -1.6%
Liver Weight, % different from control ([3]; 0.046 mM/kg/p.o. × 4 days): +8.6%
Liver Weight, % different from control ([3]; 0.185 mM/kg/p.o. × 4 days): +3.3%
Structure (SMILES): COc1ccc2cc(C(O)C(C)N3CCC(NC(=O)c4ccccc4)CC3)ccc2c1 (stereo not drawn) [MG 38127, 2-(4-Benzamido-1-piperidinyl)-1-(6-methoxy-2-naphthyl)-propanol]
CHOL, % different from control ([3]; 0.023 mM/kg/p.o. × 4 days): -30.2%
CHOL-HDL, % different from control ([3]; 0.023 mM/kg/p.o. × 4 days): +7.6%
TG, % different from control ([3]; 0.023 mM/kg/p.o. × 4 days): -41.4%
CHOL, % different from control ([3]; 0.046 mM/kg/p.o. × 4 days): -51.2%
CHOL-HDL, % different from control ([3]; 0.046 mM/kg/p.o. × 4 days): -1.8%
TG, % different from control ([3]; 0.046 mM/kg/p.o. × 4 days): -66.3%
CHOL, % different from control ([3]; 0.185 mM/kg/p.o. × 4 days): -59.1%
CHOL-HDL, % different from control ([3]; 0.185 mM/kg/p.o. × 4 days): -19.8%
TG, % different from control ([3]; 0.185 mM/kg/p.o. × 4 days): -81.7%
hypolipemic activity (in words) ([3]; oral): good activity at very low doses

Structure (SMILES): Fc1ccc(C(c2ccc(F)cc2)N2CCN(C/C=C/c3ccccc3)CC2)cc1 [Flunarizine, reference compound]
change in vivo at 50 mg/kg ([5]; 50 mg/kg/p.o., pretreatment 90 min): 68.7%

Structure (SMILES): COc1ccc2cc(C(O)C(C)N3CCN(c4ccccc4OC)CC3)ccc2c1 (stereo not drawn) [MG 38098, threo-2-[4-(2-Methoxyphenyl)-1-piperazinyl]-1-(6-methoxy-2-naphthyl)-propanol]
change in vivo at 100 mg/kg ([5]; pretreatment 90 min): 41.1%

Structure (SMILES): CC(NCCCCc1ccccc1)C(O)c1ccc2c(c1)CCS2 (stereo not drawn) [Tibalosine]
IC50 [6]: 1000 µM
IC50 [7]: 0.4 µM
Max. changes in systolic pressure ([8]; 1 mg/kg p.o.): ~ 0 mmHg
Max. changes in systolic pressure ([8]; 5 mg/kg p.o.): -13.2 mmHg
Max. changes in systolic pressure ([8]; 15 mg/kg p.o.): -67 mmHg

Structure (SMILES): CCCCCCCCNC(C)C(O)c1ccc2cc(OC)ccc2c1 (stereo not drawn) [MG 38077]
change in vivo at 100 mg/kg ([5]; pretreatment 90 min): 71%

Liver Weight, % different from control ([3]; 0.205 mM/kg/p.o. × 8 days): +4.0%
Liver Weight, % different from control ([3]; 0.82 mM/kg/p.o. × 4 days): ~ 0%
Structure (SMILES): CC(C)(Sc1cc(C(C)(C)C)c(O)c(C(C)(C)C)c1)Sc1cc(C(C)(C)C)c(O)c(C(C)(C)C)c1 [Probucol, reference compound]
CHOL, % different from control ([3]; 0.205 mM/kg/p.o. × 8 days): -25.0%
CHOL-HDL, % different from control ([3]; 0.205 mM/kg/p.o. × 8 days): -26%
TG, % different from control ([3]; 0.205 mM/kg/p.o. × 8 days): -28.0%
CHOL, % different from control ([3]; 0.82 mM/kg/p.o. × 4 days): ~ 0%
CHOL-HDL, % different from control ([3]; 0.82 mM/kg/p.o. × 4 days): +18.5%
TG, % different from control ([3]; 0.82 mM/kg/p.o. × 4 days): ~ 0%
hypolipemic activity (in words) ([3]; oral): moderate and is noted only after prolonged treatment (8 days)

Structure (SMILES): Cc1ccc(N(CC2=NCCN2)c2cccc(O)c2)cc1 [Phentolamine]
ED50 [1]: 8 mg/kg

Structure (SMILES): CCCCCCCCNC(C)C(O)c1ccc(SC(C)C)cc1 (stereo not drawn) [Suloctidil, reference compound]
% Inhibition, Aggregation rate [2]: 57.5%
% Inhibition, Maximum aggregation [2]: 69.0%
change in vivo at 100 mg/kg ([5]; pretreatment 45 min): 27.5%
change in vivo at 100 mg/kg ([5]; pretreatment 90 min): 11.7%
